Experimental data reported in the supplement of paper PMC10307832.

How the values were obtained:
Trametinib = compound: CC(=O)Nc1cccc(-n2c(=O)n(C3CC3)c(=O)c3c(Nc4ccc(I)cc4F)n(C)c(=O)c(C)c32)c1 [Trametinib]; experiment: relative viability (nuclei count vs DMSO), 5 days (fraction); higher = more cells survive
Procedure, shortened: (§1)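 On vehicle-anchored 1536-well plates, lung cancer cell lines held overnight at 37 °C were pinned with five library-drug doses (not always all listed) spaced by √10. With no medium change over 5 days, they were then fixed, permeabilised and Hoechst-stained in one step and imaged at 4×. MetaXpress counted nuclei, and viability is the median across plates of treated-well over vehicle-well nuclei. Acceptance needed control CV below 25% and at least one doubling.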

[1] = compound: CN1C=C(C2=CC=CC=C21)/C=C\3/C4=C(C=CC=N4)NC3=O; experiment: as above
Procedure, shortened: as §1

Row | Cell Line | relative viability (Trametinib; 0.0025 µM) | relative viability (Trametinib; 0.007906 µM) | relative viability (Trametinib; 0.02 µM, anchor plate) | relative viability (Trametinib; 0.025 µM) | relative viability (Trametinib; 0.07906 µM) | relative viability (Trametinib; 0.25 µM) | relative viability ([1]; 0.02 µM) | relative viability ([1]; 0.06325 µM) | relative viability ([1]; 0.2 µM) | relative viability ([1]; 0.6325 µM) | relative viability ([1]; 2 µM)
1 | NCI-H2023 | 0.964 | 0.765 | 0.611 | 0.655 | 0.632 | 0.334 | 1.01 | 0.962 | 0.768 | 0.945 | 0.898
2 | NCI-H2085 | 0.913 | 0.823 | 0.504 | 0.754 | 0.783 | 0.729 | 1.01 | 0.943 | 0.942 | 1.03 | 0.993
3 | NCI-H2087 | 0.867 | 0.463 | 0.217 | 0.302 | 0.179 | 0.139 | 1 | 0.87 | 1.05 | 0.986 | 1.06
4 | NCI-H2126 | 0.9 | 0.836 | 0.572 | 0.585 | 0.738 | 0.669 | 0.965 | 0.993 | 0.885 | 1.01 | 0.955
5 | NCI-H2170 | 0.96 | 0.955 | 0.94 | – | 0.929 | 0.923 | 0.854 | 0.983 | 0.833 | 0.839 | 1.07
6 | NCI-H2228 | 0.771 | 0.885 | 0.555 | 0.811 | 0.61 | 0.363 | 1.05 | 0.856 | – | 0.864 | 1.14
7 | NCI-H2342 | 0.958 | 0.915 | 0.847 | 0.554 | 0.749 | 0.855 | 0.938 | 0.963 | 0.955 | 0.878 | 0.906
8 | NCI-H2347 | 0.988 | 0.535 | 0.285 | 0.377 | 0.356 | 0.371 | 1.05 | 1.01 | 0.94 | 0.932 | 1.02
9 | NCI-H2405 | 0.944 | 0.946 | 0.665 | 0.553 | 0.535 | 0.556 | 0.987 | 0.959 | 0.715 | 0.966 | 0.961
10 | NCI-H3122 | 0.909 | 0.701 | 0.231 | 0.465 | 0.361 | 0.281 | 0.878 | 0.938 | 0.897 | 1.05 | 0.994
11 | PC-3 [JPC-3] | 1.03 | 0.916 | 0.7 | 0.843 | 0.764 | 0.637 | 1.03 | 1.02 | 0.859 | 0.975 | 0.989
12 | PC-14 | 1.03 | 0.953 | 0.756 | 0.758 | 0.626 | 0.226 | 0.944 | 0.943 | 0.926 | 1.01 | 1.05
13 | RERF-LC-KJ | 0.969 | 0.926 | 0.873 | 0.885 | 0.848 | 0.757 | 1 | 1.01 | 1.02 | 0.914 | 0.984
14 | SK-LU-1 | 1.03 | 0.88 | 0.475 | 0.641 | 0.548 | 0.412 | 0.793 | 0.928 | 0.984 | 0.945 | 1.08
15 | SK-MES-1 | 0.948 | 0.803 | 0.574 | 0.621 | 0.485 | 0.359 | 0.967 | 0.959 | 0.951 | 0.929 | 0.967
16 | SW 900 | 0.713 | 0.811 | 0.808 | 0.751 | 0.771 | 0.19 | 0.969 | 0.79 | – | 1.02 | 0.987
17 | SW 1573 | 0.875 | 0.716 | 0.615 | 0.631 | 0.583 | 0.485 | 1.07 | 0.968 | 0.994 | 1.05 | 0.971
